Reference: ChEMBL document CHEMBL5038616, “Synthesis and biological evaluation of N, N-dialkylcarboxy coumarin-NO donor conjugates as potential anticancer agents” (Bioorg Med Chem Lett, 2021)
Calls of active or inactive are those of the source. No cut-off for these calls is given here.

Legend:
[1] = test system: MDA-MB-231; experiment: Antiproliferative activity against human MDA-MB-231 cells assessed as inhibition of cell proliferation by MTT assay; assay type: functional, cell-based
[2] = test system: 4T1; experiment: Antiproliferative activity against mouse 4T1 cells assessed as inhibition of cell proliferation by MTT assay; assay type: functional, cell-based
[3] = test system: WiDr; experiment: Antiproliferative activity against human WiDr cells assessed as inhibition of cell proliferation by MTT assay; assay type: functional, cell-based
[4] = Cytotoxicity against human HDFa cells assessed as inhibition of cell proliferation by MTT assay; assay type: toxicity, cell-based
[5] = test system: MDA-MB-231; experiment: Induction of NO production in human MDA-MB-231 cells assessed as nitrite level at 100 uM by Griess reagent based assay; assay type: functional, cell-based
[6] = test system: MDA-MB-231; experiment: Induction of NO production in human MDA-MB-231 cells assessed as increase in NO fluorescence at 50 nM treated with DAF-DM diacetate for 30 mins and measured after 2 hrs incubation by confocal microscopic analysis; assay type: functional, cell-based
[7] = Cytotoxicity against human MCF-10A cells assessed as inhibition of cell proliferation by MTT assay; assay type: toxicity, cell-based
[8] = test system: MDA-MB-231; experiment: Inhibition of colony formation in human MDA-MB-231 cells assessed as reduction in colony formation at 1 to 3 nM relative to control; assay type: functional, cell-based; conditions: dose 1-3 nM
[9] = test system: MDA-MB-231; experiment: Induction of apoptosis in human MDA-MB-231 cells assessed as viable cells at 10 nM by annexin V-FITC and PI staining based flow cytometry method (reference value: 93.2 %); assay type: functional; conditions: read-out: Activity
[10] = test system: MDA-MB-231; experiment: Induction of apoptosis in human MDA-MB-231 cells assessed as early apoptotic cells at 10 nM by annexin V-FITC and PI staining based flow cytometry method (reference value: 1.92 %); assay type: functional
[11] = test system: MDA-MB-231; experiment: Induction of apoptosis in human MDA-MB-231 cells assessed as late apoptotic cells at 10 nM by annexin V-FITC and PI staining based flow cytometry method (reference value: 2.02 %); assay type: functional
[12] = test system: MDA-MB-231; experiment: Induction of apoptosis in human MDA-MB-231 cells assessed as necrotic cells at 10 nM by annexin V-FITC and PI staining based flow cytometry method(reference value: 2.88 %); assay type: functional
[13] = test system: MDA-MB-231; experiment: Induction of apoptosis in human MDA-MB-231 cells assessed as viable cells at 25 nM by annexin V-FITC and PI staining based flow cytometry method (reference value: 93.2 %); assay type: functional; conditions: read-out: Activity
[14] = test system: MDA-MB-231; experiment: Induction of apoptosis in human MDA-MB-231 cells assessed as early apoptotic cells at 25 nM by annexin V-FITC and PI staining based flow cytometry method (reference value: 1.92 %); assay type: functional
[15] = test system: MDA-MB-231; experiment: Induction of apoptosis in human MDA-MB-231 cells assessed as late apoptotic cells at 25 nM by annexin V-FITC and PI staining based flow cytometry method (reference value: 2.02 %); assay type: functional
[16] = test system: MDA-MB-231; experiment: Induction of apoptosis in human MDA-MB-231 cells assessed as necrotic cells at 25 nM by annexin V-FITC and PI staining based flow cytometry method (reference value: 2.88 %); assay type: functional
[17] = test system: MDA-MB-231; experiment: Induction of apoptosis in human MDA-MB-231 cells assessed as viable cells at 50 nM by annexin V-FITC and PI staining based flow cytometry method (reference value: 93.2 %); assay type: functional; conditions: read-out: Activity
[18] = test system: MDA-MB-231; experiment: Induction of apoptosis in human MDA-MB-231 cells assessed as early apoptotic cells at 50 nM by annexin V-FITC and PI staining based flow cytometry method (reference value: 1.92 %); assay type: functional
[19] = test system: MDA-MB-231; experiment: Induction of apoptosis in human MDA-MB-231 cells assessed as late apoptotic cells at 50 nM by annexin V-FITC and PI staining based flow cytometry method (reference value: 2.02 %); assay type: functional
[20] = test system: MDA-MB-231; experiment: Induction of apoptosis in human MDA-MB-231 cells assessed as necrotic cells at 50 nM by annexin V-FITC and PI staining based flow cytometry analysis (reference value: 2.88 %); assay type: functional
[21] = test system: MDA-MB-231; experiment: Cell cycle arrest in human MDA-MB-231 cells assessed as accumulation of cells at G0/G1 phase at 20 nM by PI staining based flow cytometry method; assay type: functional
[22] = Toxicity in […] mouse xenografted with human MDA-MB-231 cells assessed as body weight loss at 20 mg/kg, ip dosed once daily for 14 days relative to control; assay type: organism-based; conditions: in vivo, 336 h, time 14 day
[23] = test system: MDA-MB-231; experiment: Antitumor activity against human MDA-MB-231 cells xenografted in NOD-SCID mouse assessed as reduction in tumor volume at 20 mg/kg, ip measured for every 2 to 3 days; assay type: functional; set-up: scale not given: the % may be the effect or the level left; conditions: time 2-3 day
[24] = test system: MDA-MB-231; experiment: Antitumor activity against human MDA-MB-231 cells xenografted in NOD-SCID mouse assessed as reduction in tumor mass at 20 mg/kg, ip measured for every 2 to 3 days; assay type: functional; set-up: scale not given: the % may be the effect or the level left; conditions: time 2-3 day

Q: For CCN(CC)c1ccc2cc(C(=O)OCCOc3no[n+]([O-])c3S(=O)(=O)c3ccccc3)c(=O)oc2c1, which IC50 [1] is on record?
A: Its IC50 is 3.6 µM.

Q: And the IC50 [2]?
A: Its IC50 is 1300 nM.

Q: And the IC50 [3]?
A: The IC50 was 2.2 µM.

Q: What about the IC50 [4] of the same molecule?
A: The IC50 was 1480 nM.

Q: What about the Activity [5] of the same molecule?
A: Its Activity is “Active”.

Q: And the Activity [6]?
A: Its Activity is “Active”.

Q: With O=C(O)c1cc2ccc(N(Cc3ccccc3)Cc3ccccc3)cc2oc1=O as the molecule, how does the IC50 [1] read?
A: The IC50 was over 100 µM.

Q: What about the IC50 [2] of the same molecule?
A: The IC50 was over 100000 nM.

Q: What about the IC50 [3] of the same molecule?
A: The IC50 was over 100 µM.

Q: And the IC50 [7]?
A: The IC50 was over 100 µM.

Q: What does the source list for CCN(CC)c1ccc2cc(C(=O)OCCO)c(=O)oc2c1?
A: IC50 [1]: > 100 µM; IC50 [2]: > 100000 nM; IC50 [3]: > 100 µM; IC50 [7]: > 100 µM

Q: With O=C(OCCOc1no[n+]([O-])c1S(=O)(=O)c1ccccc1)c1cc2ccc(N(Cc3ccccc3)Cc3ccccc3)cc2oc1=O as the molecule, how does the IC50 [1] read?
A: Its IC50 is 0.02 µM.

Q: What about the IC50 [2] of the same molecule?
A: The IC50 was 130 nM.

Q: And the IC50 [3]?
A: The IC50 was 0.03 µM.

Q: And the IC50 [7]?
A: The IC50 was 34 µM.

Q: And the IC50 [4]?
A: Its IC50 is 1480 nM.

Q: And the IC50 [5]?
A: Its IC50 is “Active”.

Q: And the Activity [6]?
A: The Activity was “Active”.

Q: And the Activity [8]?
A: Its Activity is “Dose-Dependent Effect”.

Q: And the viability at 0.01 µM [9]?
A: Its viability at 0.01 µM is 90.9%.

Q: And the Activity [10]?
A: Its Activity is 2.04%.

Q: What about the Activity [11] of the same molecule?
A: The Activity was 5.7%.

Q: What about the Activity [12] of the same molecule?
A: Its Activity is 1.36%.

Q: What about the viability at 0.025 µM [13] of the same molecule?
A: The viability at 0.025 µM was 75.9%.

Q: What about the Activity [14] of the same molecule?
A: The Activity was 3.04%.

Q: What about the Activity [15] of the same molecule?
A: The Activity was 19.4%.

Q: And the Activity [16]?
A: Its Activity is 1.65%.

Q: And the viability at 0.05 µM [17]?
A: The viability at 0.05 µM was 60.8%.

Q: And the Activity [18]?
A: Its Activity is 4.8%.

Q: What about the Activity [19] of the same molecule?
A: Its Activity is 32.9%.

Q: What about the Activity [20] of the same molecule?
A: Its Activity is 1.47%.

Q: What about the Activity [21] of the same molecule?
A: Its Activity is “Active”.

Q: What about the Activity [22] of the same molecule?
A: Its Activity is “Non-Toxic”.

Q: And the Activity [23]?
A: The Activity was 48%.

Q: What about the Activity [24] of the same molecule?
A: Its Activity is 35%.

Q: What does the source list for O=C(c1cc2ccc(N(Cc3ccccc3)Cc3ccccc3)cc2oc1=O)N1CCN(CCOc2no[n+]([O-])c2S(=O)(=O)c2ccccc2)CC1?
A: IC50 [1]: 0.46 µM; IC50 [2]: 960 nM; IC50 [3]: 10 µM; IC50 [7]: 8.6 µM; IC50 [4]: 5310 nM; Activity [5]: inactive; Activity [6]: Active

Q: For O=C(OCCO)c1cc2ccc(N(Cc3ccccc3)Cc3ccccc3)cc2oc1=O, which IC50 [1] is on record?
A: Its IC50 is over 100 µM.

Q: What about the IC50 [2] of the same molecule?
A: Its IC50 is over 100000 nM.

Q: And the IC50 [3]?
A: Its IC50 is over 100 µM.

Q: And the IC50 [7]?
A: Its IC50 is over 100 µM.
